Results filed as inconclusive are left out. Active and inactive are the calls of the source. How the calls were made is not given here.
Tested on: Mycobacterium tuberculosis non-replicating, growth inhibition
Assay: growth inhibition of non-replicating M. tuberculosis (AID 488890)

SMILES	IC50
C=CCc1ccc2oc(C(=O)OCC)cc(=O)c2c1O	1.26 µM
Nc1nnc(Sc2ncccc2[N+](=O)[O-])s1	17 µM (inactive)
O=C(COc1ccc(Cl)cc1)Nc1ccc(Cl)cn1	6.56 µM
O=C(c1ccc(Br)o1)N1CCC(Cc2ccccc2)CC1	3.77 µM
O=C(N/N=C/c1cccs1)c1cncc(Br)c1	4.85 µM
O=C(Nc1nnc(-c2cc(Cl)ccc2Cl)o1)C1=COCCO1	22 µM (inactive)
Clc1ccc(-c2ccc(CNCc3ccccn3)o2)cc1	0.77 µM
COc1ccc(-c2nc(C=O)cs2)cc1	5.84 µM
Cc1ccc(C(=O)N/N=C/C=C/c2ccccc2)cc1	3.77 µM
CN(Cc1ccccc1)C(=O)c1ccc([N+](=O)[O-])o1	3.29 µM
COc1ccc(N2C(=O)CC(Sc3nc4ccccc4s3)C2=O)cc1OC (centres undefined)	14.2 µM (inactive)
Cc1cccc(OCC(O)Cn2c(=N)n(Cc3ccccc3)c3ccccc32)c1 (centres undefined)	20.4 µM (inactive)
Cc1cc(N2CCN(c3ccccc3)CC2)nc(-n2nc(C)cc2C)n1	6.28 µM
CCOc1cc(-c2nnc(NC(=O)c3ccco3)o2)cc(OCC)c1OCC	21.6 µM (inactive)
O=C(Nc1ccccc1N1CCCC1)c1cccc(F)c1	24.4 µM (inactive)
Cc1cccc(Cn2ccc(NC(=O)c3ccc4c(c3)OCO4)n2)c1	4.51 µM
O=C(Nc1nc2ccccc2[nH]1)c1ccc(F)cc1	13 µM (inactive)
CCOc1ccc(NC(=O)CCC(=O)N/N=C/c2ccc([N+](=O)[O-])s2)cc1	8.29 µM
COc1ccc(-c2noc(CCC(=O)Nc3cccc(C)c3)n2)cc1	11.5 µM (inactive)
Cc1[nH][nH]c(=O)c1C(c1ccc(-c2ccc(F)cc2)o1)c1c(C)[nH][nH]c1=O	8.5 µM
COc1ccc(C(=O)OCn2nnc3ccccc3c2=O)cc1	28.6 µM (inactive)
N#Cc1ccc(COC(=O)CCc2c[nH]c3ccccc23)cc1	4.68 µM
c1ccc(C2=Nc3ccccc3OC2)cc1	4.54 µM

SMILES	IC50
NC(=O)N=Nc1c2[nH]c3ccccc3nc-2c2ccccc12	9.06 µM
CCCCOC(=O)c1ccc(OC(=O)c2cccnc2)cc1	13.4 µM (inactive)
N/C(=N/OC(=O)c1ccc(Cl)cc1)c1ncc([N+](=O)[O-])s1	7.53 µM
COc1ccc2[nH]c3c(C)c4ccncc4c(C)c3c2c1	0.59 µM
CC(C)CSc1nnc2c3ccccc3n(C)c2n1	26.3 µM (inactive)
O=C(NCC1CCCCC1)c1ccc([N+](=O)[O-])cc1	0.61 µM
CN1CCc2c(sc(NC(=O)c3ccc([N+](=O)[O-])o3)c2C(N)=O)C1	8.37 µM
O=c1oc(-c2cccs2)nc2c1cnn2-c1ccccc1	0.43 µM
CCOC(=O)C1(CCc2ccccc2)CCN(Cc2ccccn2)CC1	13.6 µM (inactive)
CC(Oc1ccc2ccccc2c1)C(=O)NNC(=S)NC(=O)c1ccco1 (centres undefined)	22.1 µM (inactive)
Cc1c(CN2CCC(CO)(CCOc3ccccc3)CC2)[nH]c2ccc(Cl)cc12	15.9 µM (inactive)
CCOC(=O)C1(O)CC(C)=NN1C(=O)c1cccc(Br)c1 (centres undefined)	1.42 µM
CN(C)CC(C(=O)c1ccccc1)c1ccccc1 (centres undefined)	2.83 µM
O=C(Oc1ccccc1)c1ccc(NC(=O)c2ccco2)cc1	7.33 µM
Cc1nn(C)cc1/C=N/NC(=O)c1sc2ccccc2c1Cl	27.8 µM (inactive)
COc1cc(OC)c2c(OC)cccc2n1	6.63 µM
O=C(CNc1cccc2ccccc12)N/N=C/c1ccc([N+](=O)[O-])o1	12.1 µM (inactive)
CCn1nnc(NC(=O)COc2ccc(C3CCCCC3)cc2)n1	1.5 µM
O=C(NCC(c1cccs1)N1CCOCC1)c1cc([N+](=O)[O-])cc([N+](=O)[O-])c1 (centres undefined)	2.96 µM
Cn1c(=O)[nH]c(=O)c2c1nc([N+](=O)[O-])n2Cc1ccccc1	4.58 µM
COc1ccc(NCC(=O)N2CCCC2)cc1Cl	10.8 µM (inactive)
CC(C)Cn1c(N)c(C(=O)COC(=O)c2cnc(Cl)c(Cl)c2)c(=O)n(C)c1=O	12 µM (inactive)
COc1cc(/C=N/NC(=O)c2ccncc2)ccc1OC(=O)c1cccc(F)c1	3.53 µM

SMILES	IC50
COC(=O)c1ccc(Sc2nnnn2-c2ccccc2)c([N+](=O)[O-])c1	7.81 µM
Clc1ccccc1OCc1nnc(-c2ccccc2)o1	4.35 µM
O=C(COc1ccc2ccccc2c1)N/N=C/c1ccccn1	6.72 µM
COc1cc(/C=C2/C(=O)NN(c3cccc(C)c3)C2=O)ccc1OC(=O)c1ccco1	5.53 µM
CCCCN(CC)CCNC(=O)c1cc2c(-c3ccc(Cl)cc3)nn(C)c2s1	8.57 µM
CN(C(=O)COC(=O)c1ccc([N+](=O)[O-])cc1Cl)C1CCCCC1	5.88 µM
O=C(c1ccccc1)n1c(=O)c(F)cn(COCCBr)c1=O	21 µM (inactive)
Cc1cccc(NC(=O)c2ccc([N+](=O)[O-])o2)c1C	6.39 µM
O=C(Nc1ncc2c(n1)-c1ccccc1OC2)c1ccc(F)cc1	4.39 µM
CC1CCN(CCOCCSc2ccc(Cl)cc2)CC1	19.7 µM (inactive)
O=C(C/C=N\OCc1ccc([N+](=O)[O-])cc1)Nc1ccc(F)cc1F	9.1 µM
CCc1nnc(N/N=C/c2ccc(-c3ccc([N+](=O)[O-])cc3)o2)n1N	7.59 µM
Clc1ccc(OCCCNCc2ccccc2)c2ccccc12	5.99 µM
Cc1cc(Nc2ccccc2)n(-c2nc3ccccc3[nH]2)n1	3.88 µM
COC(=O)COc1ccc(S(=O)(=O)NCc2ccc3c(c2)OCO3)cc1	14.3 µM (inactive)
O=C(OCC#CCSc1nnc(-c2ccccc2)o1)c1ccco1	1.44 µM
Cc1ccnc(-n2sc3ccccc3c2=O)n1	25.6 µM (inactive)
Cc1ccc(NC(=O)C(=O)NNC(=O)c2ccccc2C)cc1Cl	2.67 µM
Cc1cccnc1NC(=O)COc1ccc2oc3c(c2c1)CCCC3	9.41 µM
Cn1c(=O)c(Oc2ccc(Cl)cc2)c(O)c2ccccc21	11.1 µM (inactive)
COc1cc(CNCCc2ccccc2)cc(Br)c1OCC(=O)Nc1ccccc1C	8.58 µM
C/C(CC(=O)Nc1ccc(C)c(Cl)c1)=N\NC(=O)c1ccco1	28.8 µM (inactive)
O=C(COc1ccc2ccccc2c1Br)N1CCCC1	0.56 µM

SMILES	IC50
Cc1ccc(CNC(=O)c2ccc([N+](=O)[O-])o2)cc1	0.46 µM
COc1ccc(-c2nnn(CC(=O)OC3CCCCC3)n2)cc1OC	7.74 µM
CCCOc1ccc(N2CC(C(=O)Nc3ccccc3F)CC2=O)cc1 (centres undefined)	15.8 µM (inactive)
COc1ccc(/C(C)=N/Nc2ncc(Cl)cc2Cl)c(O)c1	4.51 µM
c1ccc2cc(OCCCn3ccnc3)ccc2c1	16.5 µM (inactive)
Cc1ccc(-n2c(C)cc(C3=NNC(=NC4CC4)SC3)c2C)cc1C	7.03 µM
CN1C(=O)NC(=O)/C(=C/c2ccc([N+](=O)[O-])s2)C1=O	10.3 µM (inactive)
O=C(NC(=S)NNC(=O)[C@H]1C[C@@H]1c1ccccc1)c1cccc(F)c1	6.69 µM
C=CCNc1nc(C(=O)OCC(=O)c2cccc(Br)c2)cs1	20.8 µM (inactive)
Cc1ccc(NCCC(=O)c2cccs2)cc1C	6.07 µM
Cc1ccc(NC(=O)CN(C)CC(=O)Nc2ccc(F)c(Cl)c2)cc1	26.5 µM (inactive)
O=C(Nc1ccc(Cl)c(Cl)c1)O/N=C/c1ccncc1	15.5 µM (inactive)
CCCN1C(=O)SC(CC(=O)Nc2ccccc2)C1=O (centres undefined)	17.5 µM (inactive)
CC1=NN(C(=O)c2csc(C(C)C)c2)C(O)(C(F)(F)F)C1 (centres undefined)	0.36 µM
CC(C)c1cc(C(=O)N/N=C/C=C/c2ccccc2)n[nH]1	27 µM (inactive)
COC(=O)c1cccc(COC(=O)c2cc3ccccc3oc2=O)c1	11.7 µM (inactive)
Cc1ccc(OCC(=O)OCc2c(C)noc2C)cc1C	11.7 µM (inactive)
CCc1ccc(C(C)NC(=O)C2CCCO2)cc1 (centres undefined)	8.61 µM
O=C(c1ccc([N+](=O)[O-])cc1[N+](=O)[O-])N1CCc2ccccc21	3.34 µM
C=C1CCC[C@]2(C)C[C@H]3OC(=O)C(CNC(C)CCCC(C)C)[C@H]3CC12 (some centres undefined)	15.3 µM (inactive)
CCCCCn1c(=O)c(C(=O)Nc2nc(CC(=O)OCC)cs2)c(O)c2ccccc21	2.39 µM
Cc1cccc(Cc2cnc(NC(=O)C3=NCCN3)s2)c1	4.82 µM
COc1ccc(OC)c(N2C(=O)NC(=O)/C(=C/c3ccc([N+](=O)[O-])s3)C2=O)c1	25.5 µM (inactive)

SMILES	IC50
O=C(Nc1nc2ccccc2[nH]1)c1cccc(Cl)c1	9.06 µM
CCCc1cc(C(=O)Nc2cccc(C(C)=O)c2)no1	10.2 µM (inactive)
CCOC(=O)COc1ccc2c(=O)c(-c3ccccc3OC)coc2c1	2.28 µM
CCOC(=O)CNC(=O)CNC(=O)c1nn(-c2ccc(OC)c(Cl)c2)c(=O)c2ccccc12	29.1 µM (inactive)
COc1cc(C(=O)ON=C2C=C(C)C(=O)C(C)=C2)cc(OC)c1OC	48.6 µM (inactive)
CC(CN1CCOCC1)OC(=O)c1ccc2c(c1)OCCO2 (centres undefined)	33.5 µM (inactive)
COc1ccc(CN=C(C#N)C2=C(O)c3ccccc3C2=O)cc1	8.56 µM
C/C(=N\NC(=O)c1ccc(Cl)cc1)c1ccccn1	0.89 µM
C=C[C@]1(C)C=C2CCC3[C@](C)(CCC[C@@]3(C)C(=O)O)C2CC1 (some centres undefined)	6.33 µM
O=Cc1ccc(OC2OCCOC2Oc2ccc(C=O)cc2)cc1 (centres undefined)	14.2 µM (inactive)
O=[N+]([O-])c1ccc(CN2CCN(c3ccc(Cl)cc3)CC2)o1	< 0.1 µM
CCOc1ccc(NC(=O)Cn2sc3nc(C)cc(C)c3c2=O)cc1	5.5 µM
Cc1nnc(N/N=C/c2ccc(Br)cc2)n1N	1.29 µM
O=C(C1CCN(C2CC(=O)N(Cc3ccccc3)C2=O)CC1)N1CCCCCC1 (centres undefined)	7.22 µM
O=C(O)c1ccc(NS(=O)(=O)/C=C/c2ccccc2)cc1O	3.11 µM
COc1cccc(/C=N/N2C(=O)CSC2=S)c1O	23.9 µM (inactive)
CC(C)Cc1cc(C(=O)Nc2ccc(F)cc2F)no1	2.34 µM
O=C(CCCOc1ccccc1)OCn1nnc2ccccc2c1=O	24.8 µM (inactive)
CCOc1ccc(-c2nnc(NC(=O)c3ccc(OCC(C)C)c(OC)c3)o2)cc1	24.1 µM (inactive)
O=C(O)c1ccccc1C(=O)NNc1ccc(Cl)cc1	4.09 µM
Cc1cc(C)n2[nH]c(=O)c(N=Nc3cccc(C(F)(F)F)c3)c2n1	4.14 µM
CCCOc1ccc(-c2nc(C#N)c(NCCCn3ccnc3)o2)cc1	17 µM (inactive)

— PubChem BioAssay AID488890 (Southern Research Specialized Biocontainment Screening …, 2010)
